What all share (assay type): functional, cell-based
For assay [1], the system named is CNE-2. The assay is described as follows: Cytotoxicity against human CNE-2 cells incubated for 48 hrs by MTT assay. Particulars: CNE-2, 48 h.
Assay [2] deals with SK-OV-3. Kind of assay: Antiproliferative activity against human SK-OV-3 cells.
Assay [3] deals with A2780. Kind of assay: Antiproliferative activity against human A2780 cells.
Assay [4] is described as follows: Cytotoxicity against mouse P388 cells.
Assay [5] relates to KB. The assay is described as follows: Cytotoxicity against human Vincristine-resistant KB cells. The note with it: pooled result: one value given for 6 cell lines, strains, targets or settings.
In assay [6] the test system is MCF7. The assay is described as follows: Cytotoxicity against human MCF7 cells incubated for 48 hrs by neutral red dye based assay. The note with it: MCF7, 48 h.
In assay [7] the test system is HCT-116. The assay is described as follows: Cytotoxicity against human HCT-116 cells incubated for 48 hrs by neutral red dye based assay. Particulars: HCT-116, 48 h.
The test system of assay [8] is A549. The assay is described as follows: Cytotoxicity against human A549 cells incubated for 48 hrs by neutral red dye based assay. Particulars: A549, 48 h.
The test system of assay [9] is L5178Y. The assay is described as follows: Cytotoxicity against mouse L5178Y cells incubated 72 hrs. Particulars: for EC50: time 72 hrs, read-out: ED50 (the source's name); for IC50: 72 h.
The test system of assay [10] is L1210. The assay is described as follows: Cytotoxicity against mouse L1210 cells.
For assay [11], the system named is HeLa. The assay is described as follows: Cytotoxicity against human HeLa cells.
In assay [12] the test system is A549. Kind of assay: Cytotoxicity against human A549 cells.
Assay [13] concerns HL-60. Kind of assay: Cytotoxicity against human HL-60 cells. The note with it: Homo sapiens, HL-60; read-out: IC50.
Assay [14] concerns HCT-116. Kind of assay: Cytotoxicity against human HCT-116 cells.
Assay [15] relates to MCF7. The assay is described as follows: Cytotoxicity against human MCF7 cells.
Assay [16] relates to KB. Kind of assay: Cytotoxicity against human KB cells. Particulars: Homo sapiens, KB; read-out: IC50.
Assay [17] has as its system Hep 3B2. Kind of assay: Cytotoxicity against human Hep3B cells after 48 hrs incubation by SRB assay. Background: The SRB assay estimates cell density from bound dye.
For assay [18], the system named is HepG2. The assay is described as follows: Cytotoxicity against human HepG2 cells after 48 hrs incubation by SRB assay. The note with it: HepG2, 48 h.

pIC50: −log10 of the molar value. In brackets after ≈: the same amount, converted by molar mass.

The IC50 is the midpoint of a concentration-inhibition curve. A word on the pIC50: it is −log10 of the IC50, conventionally taken in molar units.

`COc1c(O)c(=O)n2c3ccccc3c3ccnc1c32` showed a half-maximal inhibitory concentration (IC50) in [1] of 7.96 µg/mL (≈ 29.9 µM).

`C=Cc1ncc(OC)c2c1[nH]c1c(OC)cccc12`: the IC50 came to 11.9 µg/mL in assay [2] and 2.02 µg/mL in [3].

`C=Cc1ncc(OC)c2c3ccccc3n(OC)c12`: the values for the pIC50 in assay [2] and in assay [3] were 4.18 and 4.83, respectively.

In assay [1], `O=c1ccc2nccc3c4cccc(O)c4n1c23` returned a half-inhibitory concentration (IC50) of 13.4 µg/mL (≈ 56.9 µM).

As to `N[C@@H]1CSCON2CCc3c([nH]c4cc(Br)ccc34)[C@H]12`, the half-maximal inhibitory concentration (IC50) in assay [4] is 0.01 µg/mL (≈ 0.0282 µM).

`O=c1ccc2nccc3c4ccc(O)cc4n1c23`: the IC50 in assay [4] and in assay [5] was 1.5 µg/mL (≈ 6.35 µM) in each case.

In the case of `C=Cc1nccc2c1[nH]c1c(O)cccc12`, inhibition in [4] was half-maximal at 0.1 µg/mL (≈ 0.476 µM) (IC50).

As for `O=C1NCCc2c1[nH]c1ccccc21`, the 50% inhibitory concentration (IC50) was 8.27 µg/mL (≈ 44.4 µM) in assay [6], 7.45 µg/mL (≈ 40 µM) in assay [7] and 10.1 µg/mL (≈ 54.3 µM) in assay [8].

In the case of `[O-][N+]1=C(C2=C[C@@]3(O)CC/C=C\CCCCN4CC[C@@H]2[C@]2(CC5/C=C\CCCCN5[C@H]23)C4)c2[nH]c3ccccc3c2CC1` (stereo partly drawn), the EC50 in [9] came out at 1.6 µg/mL (≈ 2.82 µM).

In the case of `COc1ccc2c3cc[n+]([O-])c4ccc(=O)n(c2c1)c34`, the IC50 in assay [4] and in assay [5] was 3.8 µg/mL (≈ 14.3 µM) each time.

Regarding `O=c1ccc2c3c(cc[n+]2[O-])c2ccc(O)cc2n13`, the IC50 in [4] and in [5] was 3.5 µg/mL (≈ 13.9 µM) each time.

For the compound `[O-][n+]1ccc2c([nH]c3ccccc32)c1C1=C[C@@]2(O)CC/C=C\CCCCN3CC[C@@H]1[C@]1(CC4/C=C\CCCCN4[C@H]12)C3` (stereo partly drawn), the EC50 in [9] came to 1.6 µg/mL (≈ 2.83 µM).

As to `[O-][n+]1ccc2c([nH]c3ccccc32)c1C1=C[C@@]2(O)CC/C=C\CCCCN3CC[C@@H]1[C@]1(CC/C=C\CCCCN[C@H]12)C3`, the EC50 in [9] is 3.2 µg/mL (≈ 5.65 µM).

`COc1ccc2c3ccnc4ccc(=O)n(c2c1)c43`: the half-inhibitory concentration (IC50) in assay [4] and in assay [5] was 1.4 µg/mL (≈ 5.59 µM) in each case.

Take `Cn1c2cnccc2c2c(Br)c(O)ccc21`: the IC50 came out at 1.8 µg/mL (≈ 6.5 µM) in assay [9] and 2.4 µg/mL (≈ 8.66 µM) in [10].

Regarding `COc1ccccc1-c1c(-c2ccccc2)ncc2[nH]c3ccccc3c12`, the pIC50 in assay [11] was 4.68; in assay [12], 5.09.

In turn, `C[n+]1ccc2c3ccccc3n3c2c1CC(=O)C3=O` displayed an IC50 in assay [1] of 23.7 µg/mL.

With `Nc1nccc(C2=NCCc3c2[nH]c2ccccc32)n1`, the half-maximal inhibitory concentration (IC50) came out at 2.81 µg/mL (≈ 10.7 µM) in assay [6], 0.59 µg/mL (≈ 2.24 µM) in [7] and 1.92 µg/mL (≈ 7.29 µM) in assay [8].

Regarding `O=C1CCCCN2[C@@H](C1)C[C@]13CN4CCCC/C=C\CC[C@](O)(C=C(c5nccc6c5[nH]c5c(O)cccc56)[C@@H]1CC4)[C@H]23`, the half-inhibitory concentration (IC50) in [4] worked out at 5 µg/mL (≈ 8.61 µM).

In the case of `Nc1nccc(-c2nccc3c2[nH]c2c([C@@H]4c5ccccc5N=C5[C@@H](O)CCN54)c(O)ccc23)n1`, the pIC50 in [13] was 4.41; in [12] it was 4.25.

Consider `CNC(=O)CCCc1nccc2c1[nH]c1ccccc12`, for which the IC50 was 3.5 µg/mL (≈ 13.1 µM) in assay [6], 0.67 µg/mL (≈ 2.51 µM) in [7] and 2.15 µg/mL (≈ 8.04 µM) in [8].

In assay [1], `COc1c(OC)c2nccc3c4cc(O)ccc4n(c1=O)c23` returned a half-maximal inhibitory concentration (IC50) of 11.6 µg/mL (≈ 39.2 µM).

For `COc1ccc2c3c([nH]c2c1)[C@]1(NCC3)C(C)=C(C)c2nc3ccccc3c(=O)n21`, the pIC50 in assay [13] was 5.03.

In [10], `O[C@H]1[C@H]2[C@@H]3c4[nH]c5ccccc5c4CCN3CN3CCCC/C=C\CC[C@@]45CN(CCCC/C=C\CC[C@@]1(O)[C@H]34)CC[C@@H]25` came in with an IC50 of 4.4 µg/mL (≈ 7.52 µM).

Regarding `COc1nccc2c1[nH]c1ccccc12`, the figures for the IC50 in assay [2] and in [3] were 22.3 µg/mL and 9.72 µg/mL, respectively.

For `C=Cc1ncc(OC)c2c1[nH]c1c(O)cccc12`, the pIC50 in assay [2] is 4.79; in assay [3], 5.07.

In [10], `O[C@]12C=C(C3NCCc4c3[nH]c3ccccc43)[C@@H]3CCN(CCCC/C=C\CC1)C[C@@]31CC/C=C\CCCCN[C@H]12` (stereo partly drawn) had a concentration for half-maximal inhibition (IC50) of 1.3 µg/mL (≈ 2.34 µM).

As for `CC(C=O)CNc1nccc(-c2nccc3c2[nH]c2ccccc23)n1` (stereo not drawn), the pIC50 in [14] is 5.47; in [15], 5.22.

As for `COc1cc(-c2nc(C(=O)N[C@@H](Cc3c[nH]c4ccccc34)C(=O)N[C@@H](Cc3c[nH]c4ccccc34)C(=O)N[C@@H](CCSC)C(=O)OCc3ccccc3)cc3c2[nH]c2ccccc23)ccc1O`, the pIC50 in assay [13] is 4.80.

As to `Oc1ccc2[nH]c3c(C4=C[C@@]5(O)CC/C=C\CCCCN6CC[C@@H]4[C@@]4(C6)CC67CCC(CCCN6[C@H]45)O7)nccc3c2c1`, in assay [16], the IC50 came to 7.9 µg/mL (≈ 13.6 µM).

As for `Oc1ccc2[nH]c3c(C4=C[C@@]5(O)CC/C=C\CCCCN6CC[C@@H]4[C@]4(CC7/C=C\CCCCN7[C@H]45)C6)nccc3c2c1` (stereo partly drawn), the IC50 in assay [16] turned out to be 7.3 µg/mL (≈ 12.9 µM).

Turning to `COc1cnc(C(=O)[C@@H](CC(=O)c2nccc3c2[nH]c2ccccc23)OC)c2[nH]c3ccccc3c12`, the pIC50 in [17] is 4.50; in assay [18] it was below 4.30.

Regarding `O[C@]12C=C(c3nccc4c3[nH]c3ccccc34)[C@@H]3CCN(CCCC/C=C\CC1)C[C@@]31CC34CCC(CCCN3[C@H]12)O4`, the EC50 in [9] was found to be 1.8 µg/mL (≈ 3.19 µM).

For the compound `COc1ccc2c(c1)NC1C2CCN2C(=O)[C@]34C5Nc6cc(OC)ccc6C5CCN3[C@]12C4(C)C` (stereo partly drawn), in assay [13], the pIC50 was 5.24.

Turning to `CNc1nccc(-c2nccc3c2[nH]c2ccccc23)n1`, the negative logarithm of the IC50 (pIC50) in assay [14] was 5.54; in [15], 5.36.

For the compound `COc1ccc2c3c([nH]c2c1)-c1c(C(=O)c2ncc4ccccc4n2)ccn1CC3`, the negative-log IC50 (pIC50) in [13] was 4.87.

Turning to `COc1cnc(C(=O)[C@H](CC(=O)c2nccc3c2[nH]c2ccccc23)OC)c2[nH]c3ccccc3c12`, the negative-log IC50 (pIC50) in assay [17] was 4.73; in assay [18], 4.36.

For the compound `C=Cc1ncc(OC)c2c1[nH]c1ccccc12`, the IC50 in assay [2] came out at 15.7 µg/mL; in [3], 4.77 µg/mL.

On to `COc1c(OC)c2nccc3c4ccccc4n(c1=O)c23` [4,5-DIMETHOXYCANTHIN-6-ONE], for which the midpoint of inhibition in [1], the IC50, lay at 9.86 µg/mL (≈ 35.2 µM).

For `Nc1nccc(-c2nccc3c2[nH]c2ccccc23)n1` [ANNOMONTINE], the figures for the 50% inhibitory concentration (IC50) in [6], in [7] and in assay [8] were 1.21 µg/mL (≈ 4.63 µM), 0.42 µg/mL (≈ 1.61 µM) and 1.09 µg/mL (≈ 4.17 µM), respectively.

The compound `COc1cccc2c1C(=O)c1c(O)c3c(c(O)c1C2=O)C[C@@](O)(C(=O)CO)C[C@@H]3O[C@H]1C[C@H](N)[C@H](O)[C@H](C)O1` [DOXORUBICIN] gave a pIC50 in assay [14] of 6.41.

On to `CC(C)CC(N)c1nccc2c1[nH]c1cc(Br)ccc12` (stereo not drawn) [EUDISTALBIN A], for which the IC50 in [16] was 3.2 µg/mL (≈ 9.63 µM).

In turn, `CN[C@H](CSC)c1nccc2c1[nH]c1ccc(O)c(Br)c12` [EUDISTOMIDIN C] returned an IC50 in assay [9] of 0.42 µg/mL (≈ 1.15 µM).

Turning to `O[C@]12C=C(c3nccc4c3[nH]c3ccccc34)[C@@H]3CCN(CCCC/C=C\CC1)C[C@@]31C[C@@H]3/C=C\CCCCN3[C@H]12` [MANZAMINE A], in assay [4], the IC50 amounted to 0.07 µg/mL (≈ 0.128 µM).

Compound `C1=C\CC[C@]23CN4CCCC/C=C\CC[C@@]5(O[C@H]5[C@@H](c5nccc6c5[nH]c5ccccc56)[C@@H]2CC4)[C@@H]3NCCCC/1` [MANZAMINE B] gave an IC50 in [4] of 6 µg/mL (≈ 10.9 µM).

In the case of `C1=C\CCCCN(CCc2nccc3c2[nH]c2ccccc23)CCCC/1` [MANZAMINE C], the IC50 in assay [4] was 3 µg/mL (≈ 8.63 µM).

In turn, `O[C@]12C=C(c3nccc4c3[nH]c3ccccc34)[C@@H]3CCN(CCCC/C=C\CC1)C[C@@]31CC/C=C\CCCCN[C@H]12` [MANZAMINE J] showed an IC50 in assay [10] of 2.6 µg/mL (≈ 4.72 µM).

As for `Oc1ccc2[nH]c3c(C4=C[C@@]5(O)CC/C=C\CCCCN6CC[C@@H]4[C@]4(C[C@@H]7/C=C\CCCCN7[C@H]45)C6)nccc3c2c1` [MANZAMINE Y], the half-maximal inhibitory concentration (IC50) in assay [16] was found to be 2.5 µg/mL (≈ 4.43 µM); in assay [10], 1.5 µg/mL (≈ 2.66 µM).

The values are drawn from ChEMBL document CHEMBL5241090, “A comprehensive overview of β-carbolines and its derivatives as anticancer agents” (Eur J Med Chem, 2021).
